Reference: patent US11173177B2, “Compounds for treatment of lipoprotein metabolism disorders” (Aarhus Universitet, priority 2016, dated 2021)

Assays:
[1] = tested on: LDLR in HepG2 cells; test: LDLR levels in HepG2 cells by Western blotting and densitometry; type: cell-based, human; details: 0-200 μg/ml, 24 h
Experimental: In the heparin mimetic class of modified polysaccharides compounds dextran sulfate (FIG. 9 A-B) and pentosan (FIG. 9 D-E) were tested in a HepG2 based in vitro cell assay. After overnight incubation LDLR levels were evaluated by Western blotting showing a concentration dependent increase of LDLR upon treatment with dextran sulfate (0-200 μg/ml) with up to 3-fold up regulation of LDLR.
Control cells were incubated without additives (negative control) or 500 μg/ml heparin (positive control). LDLR levels were calculated with respect to the level found in lysate of HepG2 cells incubated without additives.
HepG2 cells were incubated with 0-200 μg/ml of heterogeneously sulfated hexamer or 18-mer oligosaccharides containing on average 1,3 sulfates per disaccharide. After over night incubation cells were harvested and the cellular level of LDLR was analyzed by Western blotting (FIG. 17 A) and quantified by densitometry (FIG. 17 B).

[2] = tested on: liver LDLR; test: Liver LDLR levels in mice after intravenous PCSK9 injection (Western blot); type: in vivo; details: inhibitor i.v. 60 min prior PCSK9 (10 μg); compound (X) 0.13 mg/kg, Evolocumab 8 mg/kg; PCSK9 without inhibitor: 50% decrease
Experimental: To test the effect of enzymatic removal of heparan sulfate GAGs on PCSK9 activity in vivo 10-12 week-old male BALB6/cJRj mice were infused with heparinase I (30 U) administered through a tail vein catheter 5 min prior injection of PCSK9 (10 μg). In control mice the heparinase injection and/or the PCSK9 injection were replaced with an injection of 0.9% saline. During heparinase infusion, mice were lightly anaesthetized with isoflurane continuously administered through a mask.
Mice (BALB6/cJRj) were subjected to a single intravenous administration (tail vein) of 10 μg human recombinant PCSK9 alone or in combination with heparin (50 U). One hour post injection mice were sacrificed and liver tissues were collected.
Mice (BALB6/cJRj) were subjected to a single intravenous (tail vein) administration of 3.2 μg compound (X) 60 minutes prior injection with PCSK9 (10 μg). PCSK9 induced degradation of liver LDLR was assessed 60 min post PCSK9 injection by Western blotting and quantified by densitometry (FIG. 16 C). Control mice were injected with NaCl or control inhibitor Evolocumab (200 μg), commercially available PCSK9 inhibitory monoclonal antibody (Amgen). LDLR levels were calculated with respect to LDLR level in mice injected with NaCl alone.

[3] = target: PCSK9; test: BIACORE interference assay, PCSK9 binding to heparin-albumin sensor chip; parameters: species or system human; details: 100 nM PCSK9 preincubated with 0 nM-10 μM compound; read-out: estimated IC50, inhibition of PCSK9 binding to heparin-albumin sensor chip
Experimental: BIACORE analysis using sensor chips coupled with either albumin (Sigma A4503) or heparin-albumin (Sigma H0403) were used to evaluate the interaction between PCSK9 and heparin. […] An interference assay using BIACORE analysis was implemented to assess the binding between compound (X) and PCSK9. Solutions of 100 nM PCSK9 was incubated with increasing concentrations of compound (X) (0 nM, 10 nM, 100 nM, 1 μM and 10 μM), the solutions were then infused over the sensor chip coupled with heparin-albumin.

[4] = tested on: PCSK9; test: Heparin-sepharose binding assay (free PCSK9 by ELISA); parameters: species or system human; details: 500-200 μg/ml, PCSK9 1 μg/ml, over night 4° C.
Experimental: Compound (X) inhibition of PCSK9 binding to Heparin/Heparan sulfate was tested in a Heparin-sepharose binding assay. Heparin-sepharose beads (2 μl) were incubated with PCSK9 (1 μg/ml) with increasing concentrations of compound (X) (0-500 μg/ml) in a total volume of 150 μl 10 mM NaH2PO4. After over night rotation at 4° C., beads were pelleted and the concentration of non-precipitated PCSK9 (free PCSK9) in supernatant was evaluated by ELISA. The concentration of free PCSK9 in each sample was normalised to the PCSK9 level in a sample without Heparin-sepharose beads (input control). As positive control was included a sample with soluble heparin (5 mg/ml) (FIG. 16 A).
Sucrose octasulfate (FIG. 21A) inhibition of PCSK9 binding to Heparin/Heparan sulfate was tested in a Heparin-sepharose binding assay. Heparin-sepharose beads (2 μl) were incubated with PCSK9 (1 μg/ml) and increasing concentrations of sucrose octasulfate (0-500 μg/ml) in a total volume of 150 μl 10 mM NaH2PO4. After over night rotation at 4° C., beads were pelleted and the concentration of non-precipitated PCSK9 (free PCSK9) in supernatant was evaluated by ELISA). Percent free PCSK9 was calculated with respect to the PCSK9 concentration in a sample without Heparin-sepharose beads (input control) (FIG. 21B).

## CC(C)CCC[C@@H](C)[C@H]1CC[C@H]2[C@@H]3CC[C@H]4C[C@@H](O[C@@H]5O[C@H](COS(=O)(=O)[O-])[C@@H](O[C@H]6O[C@H](COS(=O)(=O)[O-])[C@@H](O[C@H]7O[C@H](COS(=O)(=O)[O-])[C@@H](O[C@H]8O[C@H](COS(=O)(=O)[O-])[C@@H](OS(=O)(=O)[O-])[C@H](OS(=O)(=O)[O-])[C@H]8OS(=O)(=O)[O-])[C@H](OS(=O)(=O)[O-])[C@H]7OS(=O)(=O)[O-])[C@H](OS(=O)(=O)[O-])[C@H]6OS(=O)(=O)[O-])[C@H](OS(=O)(=O)[O-])[C@H]5OS(=O)(=O)[O-])CC[C@]4(C)[C@H]3CC[C@]12C.[Na+].[Na+].[Na+].[Na+].[Na+].[Na+].[Na+].[Na+].[Na+].[Na+].[Na+].[Na+].[Na+] [compound (X), 3β-cholestanyl 2,3,4,6-tetra-O-sulfo-α-D-glucopyranosyl-(1→4)-2,3,6-tri-O-sulfo-α-D-glucopyranosyl-(1→4)-2,3,6-tri-O-sulfo-α-Dglucopyranosyl-(1→4)-2,3,6-tri-O-sulfo-β-D-glucopyranoside tridecasodium salt]
[1]
  LDLR levels with respect to cells incubated without additives: up to 12 times
  LDLR levels, concentration dependence: concentration dependent increased levels of LDLR
[2]
  decrease of liver LDLR level after PCSK9 injection: no decrease was observed
[3]
  IC50: ~50 nM
[4]
  inhibition of PCSK9 interaction with Heparin-sepharose: completely inhibited
